In article PMC6311682, “Design, Synthesis, and Biological Evaluation of 2-Nitroimidazopyrazin-one/-es with Antitubercular and Antiparasitic Activity” (Journal of Medicinal Chemistry, 2018):
In brackets after ≈: the same amount, converted by molar mass.

Test system: not listed separately
Assay: Mammalian cytotoxicity assay (resazurin), HepG2
Conditions: human, HepG2 cells

Compound	CC50 at 24 h
O=C(NCc1ccccc1)c1nc([N+](=O)[O-])c[nH]1 [16b, N-Benzyl-5-nitro-1H-imidazole-2-carboxamide]	> 100 µM
Cc1ccc(CNC(=O)c2nc([N+](=O)[O-])c[nH]2)cc1 [16d, N-(4-Methylbenzyl)-5-nitro-1H-imidazole-2-carboxamide]	> 100 µM
Cc1ccc(COc2nc(C)cn3cc([N+](=O)[O-])nc23)cc1 [25i, 6-Methyl-8-((4-methylbenzyl)oxy)-2-nitroimidazo[1,2-a]pyrazine]	> 100 µM
Cc1cn2cc([N+](=O)[O-])nc2c(OCc2cccc(OC(F)(F)F)c2)n1 [25k]	> 100 µM
Cc1cn2cc([N+](=O)[O-])nc2c(OCc2ccccc2OC(F)(F)F)n1 [25m, 6-Methyl-2-nitro-8-((2-(trifluoromethoxy)benzyl)oxy)imidazo[1,2-a]pyrazine]	> 100 µM
Cc1c(C)n2cc([N+](=O)[O-])nc2c(=O)n1Cc1cccc(OC(F)(F)F)c1 [26f, 5,6-Dimethyl-2-nitro-7-(3-(trifluoromethoxy)benzyl)imidazo[1,2-a]pyrazin-8(7H)-one]	25.6 to 80 µM

Test system: not listed separately
Assay: Kinetic solubility determination by LC-UV
Conditions: PBS, pH 7.4, Solubility µM (PBS), PBS pH 7.4, 24 h, room temperature, 1% DMSO

Compound	solubility at 24 h
Cc1ccc(COc2nc(C)cn3cc([N+](=O)[O-])nc23)cc1 [25i, 6-Methyl-8-((4-methylbenzyl)oxy)-2-nitroimidazo[1,2-a]pyrazine]	< 5 µM
Cc1cn2cc([N+](=O)[O-])nc2c(OCc2ccccc2OC(F)(F)F)n1 [25m, 6-Methyl-2-nitro-8-((2-(trifluoromethoxy)benzyl)oxy)imidazo[1,2-a]pyrazine]	< 5 µM
Cc1c(C)n2cc([N+](=O)[O-])nc2c(=O)n1Cc1cccc(OC(F)(F)F)c1 [26f, 5,6-Dimethyl-2-nitro-7-(3-(trifluoromethoxy)benzyl)imidazo[1,2-a]pyrazin-8(7H)-one]	15.7 ± 0.404 µM (≈ 6 µg/mL)

Same assay, conditions: water, Solubility µM (H2O), 24 h, room temperature, 1% DMSO

Compound	solubility at 24 h
Cc1ccc(COc2nc(C)cn3cc([N+](=O)[O-])nc23)cc1 [25i, 6-Methyl-8-((4-methylbenzyl)oxy)-2-nitroimidazo[1,2-a]pyrazine]	< 5 µM
Cc1cn2cc([N+](=O)[O-])nc2c(OCc2ccccc2OC(F)(F)F)n1 [25m, 6-Methyl-2-nitro-8-((2-(trifluoromethoxy)benzyl)oxy)imidazo[1,2-a]pyrazine]	< 5 µM
Cc1c(C)n2cc([N+](=O)[O-])nc2c(=O)n1Cc1cccc(OC(F)(F)F)c1 [26f, 5,6-Dimethyl-2-nitro-7-(3-(trifluoromethoxy)benzyl)imidazo[1,2-a]pyrazin-8(7H)-one]	15.9 ± 1.55 µM (≈ 6.08 µg/mL)

Test system: L. donovani MHOM/IN/80/DD8 (ATCC50212)
Assay: L. donovani DD8 intracellular (THP-1) amastigote assay
Type: cell-based
Conditions: Leishmania donovani, read-out: antiparasitic IC50 L. donovani

Compound	IC50
Cc1cn2cc([N+](=O)[O-])nc2c(OCc2cccc(OC(F)(F)F)c2)n1 [25k]	> 40 µM
Cc1cn2cc([N+](=O)[O-])nc2c(OCc2ccccc2OC(F)(F)F)n1 [25m, 6-Methyl-2-nitro-8-((2-(trifluoromethoxy)benzyl)oxy)imidazo[1,2-a]pyrazine]	> 40 µM

Same assay, conditions: Leishmania donovani, read-out: antiparasitic pIC50 ± SE L. donovani (converted)

Compound	IC50
Cc1cn2cc([N+](=O)[O-])nc2c(OCc2cccc(OC(F)(F)F)c2)n1 [25k]	> 39.8 µM
Cc1cn2cc([N+](=O)[O-])nc2c(OCc2ccccc2OC(F)(F)F)n1 [25m, 6-Methyl-2-nitro-8-((2-(trifluoromethoxy)benzyl)oxy)imidazo[1,2-a]pyrazine]	> 39.8 µM

Test system: ESKAPE pathogens S. aureus (ATCC 43300), E. coli (ATCC 25922), K. pneumoniae (ATCC 700603), A. baumannii (ATCC 19606), P. aeruginosa (ATCC 27853)
Assay: Broth microdilution MIC assay, ESKAPE pathogens
Type: cell-based
Conditions: not given

Compound	antibacterial MIC ESKAPE
Cc1ccc(COc2nc(C)cn3cc([N+](=O)[O-])nc23)cc1 [25i, 6-Methyl-8-((4-methylbenzyl)oxy)-2-nitroimidazo[1,2-a]pyrazine]	>32 µg/mL
Cc1c(C)n2cc([N+](=O)[O-])nc2c(=O)n1Cc1cccc(OC(F)(F)F)c1 [26f, 5,6-Dimethyl-2-nitro-7-(3-(trifluoromethoxy)benzyl)imidazo[1,2-a]pyrazin-8(7H)-one]	>32 µg/mL

Test system: not listed separately
Assay: Broth microdilution MIC assay, ESKAPE pathogens
Type: cell-based
Conditions: S. aureus, E. coli, K. pneumoniae, A. baumannii, P. aeruginosa; read-out: antibacterial MIC ESKAPE

Compound	MIC
Cc1ccc(COc2nc(C)cn3cc([N+](=O)[O-])nc23)cc1 [25i, 6-Methyl-8-((4-methylbenzyl)oxy)-2-nitroimidazo[1,2-a]pyrazine]	> 32 µg/mL
Cc1cn2cc([N+](=O)[O-])nc2c(OCc2cccc(OC(F)(F)F)c2)n1 [25k]	> 32 µg/mL
Cc1cn2cc([N+](=O)[O-])nc2c(OCc2ccccc2OC(F)(F)F)n1 [25m, 6-Methyl-2-nitro-8-((2-(trifluoromethoxy)benzyl)oxy)imidazo[1,2-a]pyrazine]	> 32 µg/mL
Cc1c(C)n2cc([N+](=O)[O-])nc2c(=O)n1Cc1cccc(OC(F)(F)F)c1 [26f, 5,6-Dimethyl-2-nitro-7-(3-(trifluoromethoxy)benzyl)imidazo[1,2-a]pyrazin-8(7H)-one]	> 32 µg/mL

Test system: C. albicans (ATCC 90028) and C. neoformans (H99, ATCC 208821)
Assay: Broth microdilution MIC assay, fungi
Type: cell-based
Conditions: not given

Compound	antifungal MIC
Cc1ccc(COc2nc(C)cn3cc([N+](=O)[O-])nc23)cc1 [25i, 6-Methyl-8-((4-methylbenzyl)oxy)-2-nitroimidazo[1,2-a]pyrazine]	>32 µg/mL
Cc1c(C)n2cc([N+](=O)[O-])nc2c(=O)n1Cc1cccc(OC(F)(F)F)c1 [26f, 5,6-Dimethyl-2-nitro-7-(3-(trifluoromethoxy)benzyl)imidazo[1,2-a]pyrazin-8(7H)-one]	>32 µg/mL

Same assay, conditions: Candida albicans, read-out: antifungal MIC

Compound	MIC
Cc1ccc(COc2nc(C)cn3cc([N+](=O)[O-])nc23)cc1 [25i, 6-Methyl-8-((4-methylbenzyl)oxy)-2-nitroimidazo[1,2-a]pyrazine]	> 32 µg/mL
Cc1cn2cc([N+](=O)[O-])nc2c(OCc2cccc(OC(F)(F)F)c2)n1 [25k]	> 32 µg/mL
Cc1cn2cc([N+](=O)[O-])nc2c(OCc2ccccc2OC(F)(F)F)n1 [25m, 6-Methyl-2-nitro-8-((2-(trifluoromethoxy)benzyl)oxy)imidazo[1,2-a]pyrazine]	> 32 µg/mL
Cc1c(C)n2cc([N+](=O)[O-])nc2c(=O)n1Cc1cccc(OC(F)(F)F)c1 [26f, 5,6-Dimethyl-2-nitro-7-(3-(trifluoromethoxy)benzyl)imidazo[1,2-a]pyrazin-8(7H)-one]	> 32 µg/mL

Test system: not listed separately
Assay: Mammalian cytotoxicity assay (resazurin), HEK293
Conditions: human, HEK293 cells

Compound	CC50 at 24 h
O=C(NCc1ccccc1)c1nc([N+](=O)[O-])c[nH]1 [16b, N-Benzyl-5-nitro-1H-imidazole-2-carboxamide]	> 100 µM
Cc1ccc(CNC(=O)c2nc([N+](=O)[O-])c[nH]2)cc1 [16d, N-(4-Methylbenzyl)-5-nitro-1H-imidazole-2-carboxamide]	> 100 µM
Cc1ccc(COc2nc(C)cn3cc([N+](=O)[O-])nc23)cc1 [25i, 6-Methyl-8-((4-methylbenzyl)oxy)-2-nitroimidazo[1,2-a]pyrazine]	> 100 µM
Cc1cn2cc([N+](=O)[O-])nc2c(OCc2cccc(OC(F)(F)F)c2)n1 [25k]	> 100 µM
Cc1cn2cc([N+](=O)[O-])nc2c(OCc2ccccc2OC(F)(F)F)n1 [25m, 6-Methyl-2-nitro-8-((2-(trifluoromethoxy)benzyl)oxy)imidazo[1,2-a]pyrazine]	> 100 µM
